Series [1] deals with T1, VBC (VHL, elongin B, elongin C) (Homo sapiens, UniProt P40337).
T1 construct: VHL (54–213), ElonginC (17–112) and; His6 (N, cleaved yes); made in house; host or cells: Escherichia coli BL21(DE3)
Put plainly: ITC of peptides and ligands against VBC. Type of series: binding. The settings on record: for Kd / ΔG / ΔH / –TΔS: ITC, 25°C; for Kd: mean ± s.e.m.; for fold difference in binding affinity compared to VH032: relative to VH032 Kd.

The nature of series [2]: Intrinsic clearance in mouse liver microsomes. The format is in vitro ADME. The settings on record: 0.5 µM. The method, then: (§1) Test compound (10 µM) was incubated in pre-warmed plasma at 37 ᵒC (that is buffered to pH 7.4 in ratio of 70:30 plasma to buffer). Immediately, at time zero, then at 30, 60, 120, and 180 min, a 50 µL aliquot of the incubation mixture was removed and mixed with 200 µL acetonitrile containing Donepezil as the internal standard (50 ng/ml) to stop the reaction. The samples were centrifuged to sediment the precipitated protein and the plates then sealed prior to UPLC-MS/MS analysis using a Quattro Premier XE (Waters Corporation, USA).
(§2) XLfit (IDBS, UK) was used to calculate the exponential decay and consequently the rate constant (k) from the ratio of peak area of test compound to internal standard at each time point. The half-life was calculated for each test compound from the rate by using the following calculation:
(§3) Test compound (0.5 µM) was incubated with female CD1 mouse liver microsomes (Xenotech LLC TM; 0.5 mg/mL in 50mM potassium phosphate buffer, pH 7.4) and the reaction started with addition of excess NADPH (8 mg/mL 50 mM potassium phosphate buffer, pH 7.4). […]
(§4) from the ratio of peak area of test compound to internal standard at each time point. The rate of intrinsic clearance (CLi) of each test compound was then calculated using the following calculation: […]
For orientation: Liver microsomes are a subcellular fraction often used to study metabolism.

A short description of the next series: Plasma stability. The format is in vitro ADME. The settings on record: 37 °C, pH 7.4, read-out: plasma stability T1/2. The protocol:
as §1, §2, §3, §4

Series [3] is described as follows: Parallel artificial membrane permeability assay (PAMPA). The format is in vitro ADME. The settings on record: pH 7.4, 10 µM. The protocol: Parallel Artificial Membrane Permeability Assay (PAMPA)
PAMPA was performed using a 96-well pre-coated BD Gentest™ PAMPA plate (BD Biosciences, U.K.). Each well was divided into two chambers; donor and acceptor, separated by a lipid-oil-lipid tri-layer constructed in a porous filter. The effective permeability, Pe, of the compound was measured at pH 7.4. Stock solutions (5 mM) of the compound were prepared in DMSO. The compound was then further diluted to 10 µM in phosphate buffered saline at pH 7.4. The final DMSO concentration did not exceed 5% v/v. The compound dissolved in phosphate buffered saline was then added to the donor side of the membrane and phosphate buffered saline without compound was added to the acceptor side. The PAMPA plate was left at room temperature for 5 h. After which time, an aliquot (100 µl) was then removed from both acceptor and donor compartments and mixed with acetonitrile (80 µl) containing an internal standard. The samples were centrifuged (10 min, 5 °C, 3270 g) to sediment precipitated protein and sealed prior to UPLC-MS/MS analysis using a Quattro Premier XE (Waters Corp, USA). Pe was calculated as shown in the below equation: […]
C D(t)= peak area of compound present in donor well at time t = 18000 s Recovery of compound from donor and acceptor wells was calculated and data was only accepted when recovery exceeded 70%.
A general note: In PAMPA a lipid-coated filter parts donor from acceptor wells.

The next series is described as follows: CHI Log D determination. The settings on record: reversed-phase HPLC, Phenomenex Luna C18 column, pH 7.4; read-out: CHI LogD7.4. The format is physicochemical. The protocol: Using a fast gradient, reverse-phase HPLC method to determine the chromatographic hydrophobicity index (CHI) was determined as described by Camurri and Zaramella (ref. 26) and Valko et al. (ref. 27).
Briefly, by plotting the retention time of a set of reference compounds against known CHI values. The CHI value of test compounds was then calculated according to their retention time.
Test compounds were prepared as 0.5 mM solutions in 50:50 acetonitrile:water and analysed by reversed-phase HPLC-UV (wavelength 254 nm) using a Phenomenex Luna C18 100Å 150 x 4.6mm 5 micron column with a gradient of aqueous phase (50 mM ammonium acetate, pH 7.4) and mobile

Another series has as its system MV4;11 cells. Put plainly: CellTiter-Glo cell viability assay. The format is cell-based. The settings on record: for EC50: MV4-11, 72 h. The protocol: MV4;11 cells (15000 cells per well) were dosed for 72 h with compounds serially diluted (1:3) on a clear-bottom 384-well plate with a final concentration of 0.05% (v/v) DMSO. After treatment, Promega CellTiter-Glo luminescent cell viability assay (G7572) was added to the cells according to the manufacturer instructions. The signal from each well was recorded on a BM G Labtech Pherastar luminescence plate reader with recommended settings.
Normalized data were analyzed and plotted with Graphpad Prism software in the ‘log(inhibitor) vs. response -- Variable slope (four parameters)’ module. EC50 values of each test compound were […]
For orientation: In ATP-based viability assays light output follows the ATP content of the culture.

Another series concerns A549 cells. Put plainly: A549 colony-formation assay. Type of series: cell-based. The settings on record: 7 days, crystal violet. The protocol: A549 Colony-Formation Assay
A549 cells were seeded in clear, Nunc™ Edge 2.0 96 -w ell plates (Thermo Scientific) at 1000 cells per well and incubated at 37°C in DMEM. After 24 h cells were treated with test compounds from 10 µM to 100 nM , with a final DM SO of 0.1%. The cells were left to grow until DM SO -treated wells reached ~100% confluence (~8 days), at which point they were washed with PBS, fixed with 100% MeOH (30 min 4°C), stained with 0.1% crystal violet (30 min at r.t.) and left to dry overnight. Once dried plates were imaged on an Epson Perfection V800 scanner, at a resolution of 1200 DPI and in 48 -bit colour.
For dose-response curves, crystal-violet dye was extracted by the addition of 200 µl 1% SDS to each well, and incubation for 3 h at r.t. The absorbance at 595nm of each well was measured on a Pherastar FS (BMG), normalised for each compound and plotted against compound concentration.
(1 picture or pasted object on this page, not shown here)

Details of series [4]: method as in Frost et al. 40. The settings on record: ref Frost et al. 40; cited from earlier work.
On the set-up of series [5]: method as in Frost et al. 40. The settings on record: ref Frost et al. 40; cited from earlier work. This is another data set of the same source.
On the set-up of series [6]: method as in Frost et al. 40. The settings on record: ref Frost et al. 40; cited from earlier work. This is another data set of the same source.

Each structure is given as a SMILES string. Where two headings read alike, the source gives them in different places. Marks after values point to notes of the source that are not given here. *1 amine or outer side, *2 acyl side, *3 side chain or, on linkers, in order; H or OH if unused. Where a SMILES comes first, the peptide text is derived from it. [ ]: non-standard residue; d: D form. X1 = O=C([C@@H]1[C@@H](F)[C@@H](O)CN1[*:1])[*:2]; X2 = O=C([C@@H]1[C@H](F)[C@@H](O)CN1[*:1])[*:2]

T1 sequence (P40337 54-213): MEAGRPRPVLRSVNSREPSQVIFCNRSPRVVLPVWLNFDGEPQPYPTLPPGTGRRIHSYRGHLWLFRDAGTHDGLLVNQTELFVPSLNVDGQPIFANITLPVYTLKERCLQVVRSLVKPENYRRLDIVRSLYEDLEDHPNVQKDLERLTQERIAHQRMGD
T1 sequence (Q15369 17-112 partner limits assumed): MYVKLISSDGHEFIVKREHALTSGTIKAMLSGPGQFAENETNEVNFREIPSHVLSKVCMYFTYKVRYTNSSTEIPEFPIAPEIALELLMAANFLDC
T1 sequence (Q15370 1-104 partner limits assumed): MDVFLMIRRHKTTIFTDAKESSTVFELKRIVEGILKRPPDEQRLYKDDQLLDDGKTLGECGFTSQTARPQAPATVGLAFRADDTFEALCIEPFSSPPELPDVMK

Take `CC[C@H](C)[C@H](NC(=O)[C@H](Cc1ccc(O)cc1)NC(=O)[C@@H]1[C@@H](F)[C@@H](O)CN1C(=O)[C@H](C)NC(=O)[C@H](CC(C)C)NC(=O)[C@H](C)NC(=O)[C@H](CCC(=O)O)NC(=O)[C@@H](N)CC(=O)O)C(=O)N1CCC[C@H]1C(=O)N[C@@H](CCSC)C(=O)N[C@@H](CC(=O)O)C(=O)N[C@@H](CC(=O)O)C(=O)N[C@@H](CC(=O)O)C(=O)N[C@@H](Cc1ccccc1)C(=O)N[C@@H](CCC(N)=O)C(=O)N[C@@H](CC(C)C)C(=O)N[C@@H](CCCNC(=N)N)C(=O)N[C@@H](CO)C(=O)N[C@@H](Cc1ccccc1)C(N)=O` [13a] (H-DEALA[X1]YIPMDDDFQLRSF-NH2): the Kd in [1] was 12 ± 2 nM.

Regarding `CC[C@H](C)[C@H](NC(=O)[C@H](Cc1ccc(O)cc1)NC(=O)[C@@H]1[C@H](F)[C@@H](O)CN1C(=O)[C@H](C)NC(=O)[C@H](CC(C)C)NC(=O)[C@H](C)NC(=O)[C@H](CCC(=O)O)NC(=O)[C@@H](N)CC(=O)O)C(=O)N1CCC[C@H]1C(=O)N[C@@H](CCSC)C(=O)N[C@@H](CC(=O)O)C(=O)N[C@@H](CC(=O)O)C(=O)N[C@@H](CC(=O)O)C(=O)N[C@@H](Cc1ccccc1)C(=O)N[C@@H](CCC(N)=O)C(=O)N[C@@H](CC(C)C)C(=O)N[C@@H](CCCNC(=N)N)C(=O)N[C@@H](CO)C(=O)N[C@@H](Cc1ccccc1)C(N)=O` [13b] (H-DEALA[X2]YIPMDDDFQLRSF-NH2), the Kd in series [1] is 52 ± 3 nM.

With `CC[C@H](C)[C@H](NC(=O)[C@H](Cc1ccc(O)cc1)NC(=O)[C@@H]1C[C@@H](O)CN1C(=O)[C@H](C)NC(=O)[C@H](CC(C)C)NC(=O)[C@H](C)NC(=O)[C@H](CCC(=O)O)NC(=O)[C@@H](N)CC(=O)O)C(=O)N1CCC[C@H]1C(=O)N[C@@H](CCSC)C(=O)N[C@@H](CC(=O)O)C(=O)N[C@@H](CC(=O)O)C(=O)N[C@@H](CC(=O)O)C(=O)N[C@@H](Cc1ccccc1)C(=O)N[C@@H](CCC(N)=O)C(=O)N[C@@H](CC(C)C)C(=O)N[C@@H](CCCNC(=N)N)C(=O)N[C@@H](CO)C(=O)N[C@@H](Cc1ccccc1)C(N)=O` [13c, reference compound], the Kd in series [1] was 11 ± 1 nM.

Turning to `CC(=O)N[C@H](C(=O)N1C[C@H](O)[C@H](F)[C@H]1C(=O)NCc1ccc(-c2scnc2C)cc1)C(C)(C)C` [14a], in [1], the ΔG result was “–9.02 ± 0.01 kcal/mol”, the ΔH result is on record as “–7.2 ± 0.5 kcal/mol”, the “–TΔS” value was “–1.8 ± 0.5 kcal/mol” and the “fold difference in binding affinity compared to VH032” value was not above 2 fold. In series [2], this compound came in with a mouse microsomal stability of less than 0.50 mL/min/g liver. Also, the half-life at 10 µM in the series “Plasma stability” is more than 3 h. The compound further gave a Papp at 5 h, 10 µM in series [3] of 0.23 ×10⁻⁶ cm/s. The chromatographic logD in the series “CHI Log D determination” turned out to be 1.3.

Consider `CC(=O)N[C@H](C(=O)N1C[C@H](O)[C@@H](F)[C@H]1C(=O)NCc1ccc(-c2scnc2C)cc1)C(C)(C)C` [14b], for which, in series [1], the ΔG result is “–7.55 ± 0.03 kcal/mol”, the ΔH entry is “–3.9 ± 0.5 kcal/mol”, the “–TΔS” value was “–3.8 ± 0.4 kcal/mol” and the Kd was 3080 nM. The “fold difference in binding affinity compared to VH032” value in [1] was approximately 20 fold. Further, the mouse microsomal stability in series [2] is listed as 0.68 mL/min/g liver. Moreover, in “Plasma stability”, the half-life at 10 µM is more than 3 h. In [3], this compound registered a Papp at 5 h, 10 µM of 0.081 ×10⁻⁶ cm/s. Further, the chromatographic logD in “CHI Log D determination” amounted to 1.3.

With `Cc1ncsc1-c1ccc(CNC(=O)[C@@H]2C[C@@H](O)CN2C(=O)[C@@H](NC(=O)COCCOCCOCCNC(=O)C[C@@H]2N=C(c3ccc(Cl)cc3)c3c(sc(C)c3C)-n3c(C)nnc32)C(C)(C)C)cc1` [MZ1, reference compound], in the series with MV4;11 cells (72 h), the “pEC50, antiproliferative activity” value is 7.3. In the series with MV4;11 cells (Homo sapiens, 72 h, read-out: Emax, maximal response at highest concentration), the Emax is 98%. In addition, the EC50 with MV4;11 cells (Homo sapiens, read-out: EC50, antiproliferative activity) was 54.7 nM; with MV4;11 cells (Homo sapiens, read-out: pEC50, antiproliferative activity (converted)), 54.7 nM. The “effect on cell growth, colony formation (in words)” value in the series on A549 cells is reported as “profound concentration-dependent cytotoxicity”.

On to `CC(=O)N[C@H](C(=O)N1C[C@H](O)C[C@H]1C(=O)NCc1ccc(-c2scnc2C)cc1)C(C)(C)C` [VH032], for which, in series [4], the mouse microsomal stability is on record as 0.70 ^a mL/min/g liver. In series [5], the “plasma stability T1/2” value was >180 ^a min. In addition, the “CHI LogD7.4” value in [6] is given as 0.90 ^a.

As usually defined, the Kd is the equilibrium constant for the complex coming apart. By Papp is commonly meant the rate of passage across a membrane or cell layer, normalised by area and donor concentration. A higher Papp goes with ready permeation.

Source of the values: article PMC6430500, “3-Fluoro-4-hydroxyprolines: Synthesis, Conformational Analysis, and Stereoselective Recognition by the VHL E3 Ubiquitin Ligase for Targeted Protein Degradation” (Journal of the American Chemical Society, 2018).
